pIC50: −log10 of the molar value.
Target: T1, human TLR7 (Homo sapiens, UniProt Q9NYK1)
T1 construct: host or cells: HEK293 (HEK-Blue hTLR7)
T1 sequence (Q9NYK1 27-1049): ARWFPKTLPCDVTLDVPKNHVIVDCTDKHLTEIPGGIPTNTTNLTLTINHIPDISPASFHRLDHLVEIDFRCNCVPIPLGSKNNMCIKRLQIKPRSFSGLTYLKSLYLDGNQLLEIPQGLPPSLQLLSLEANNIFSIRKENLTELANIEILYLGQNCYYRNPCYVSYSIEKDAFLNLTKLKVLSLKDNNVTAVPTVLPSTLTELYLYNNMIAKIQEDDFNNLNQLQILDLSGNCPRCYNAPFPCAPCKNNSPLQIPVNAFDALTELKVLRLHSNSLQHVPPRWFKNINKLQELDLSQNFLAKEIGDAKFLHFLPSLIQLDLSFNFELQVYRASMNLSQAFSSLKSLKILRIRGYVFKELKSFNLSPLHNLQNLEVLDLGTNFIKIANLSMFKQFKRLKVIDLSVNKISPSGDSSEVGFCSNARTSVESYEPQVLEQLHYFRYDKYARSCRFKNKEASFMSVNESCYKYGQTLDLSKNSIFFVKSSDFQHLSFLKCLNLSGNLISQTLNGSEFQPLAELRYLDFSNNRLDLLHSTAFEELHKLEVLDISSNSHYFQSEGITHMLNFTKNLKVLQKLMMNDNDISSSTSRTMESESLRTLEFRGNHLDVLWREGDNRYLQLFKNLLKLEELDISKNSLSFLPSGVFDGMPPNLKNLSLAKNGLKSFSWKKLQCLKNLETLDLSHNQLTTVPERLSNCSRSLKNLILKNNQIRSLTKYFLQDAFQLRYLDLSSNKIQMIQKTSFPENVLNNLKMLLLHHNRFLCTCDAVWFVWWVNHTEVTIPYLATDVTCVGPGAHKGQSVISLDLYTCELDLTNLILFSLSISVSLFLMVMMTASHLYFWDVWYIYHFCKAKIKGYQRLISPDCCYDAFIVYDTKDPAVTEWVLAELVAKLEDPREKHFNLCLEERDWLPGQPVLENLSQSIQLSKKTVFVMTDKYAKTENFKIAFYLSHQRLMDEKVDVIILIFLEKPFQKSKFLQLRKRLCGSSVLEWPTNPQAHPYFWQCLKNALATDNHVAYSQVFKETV
Test: HEK293-Blue-hTLR-7 cells assay (SEAP reporter, R848 stimulation)
Format: cell-based
Conditions: HEK293-Blue-hTLR7 cells, R848, 20 hrs; read-out: HEK/hTLR7 IC50
Procedure, shortened: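 HEK293-Blue-hTLR7 cells (NF-κB/AP-1-driven SEAP reporter) were stimulated with R848 alongside serially diluted compound at 1% final DMSO for 20 h at 37 °C. Supernatant SEAP was then developed with QUANTI-Blue for 2 h at 37 °C and absorbance read at 620–655 nm; antagonism is measured as reduced reporter signal.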

Row | pIC50 | Compound
1 | 8.10 | [2H]c1ccc2c(N3C[C@H](CN4CCN(c5ccc(N6CC7(CN(C)C7)C6)nc5)CC4)O[C@H](C)C3)ccc(C#N)c2n1 [Example 161, 2-deuterio-5-[(2R,6S)-2-methyl-6-[[4-[6-(6-methyl-2,6-diazaspiro[3.3]heptan-2-yl)-3-pyridyl]piperazin-1-yl]methyl]morpholin-4-yl]quinoline-8-carbonitrile]
2 | 7.96 | C[C@@H]1CN(c2ccc(C#N)c3ncccc23)C[C@H](CN2CCN(c3ccnc(N4C[C@@H](N)[C@@H](F)C4)n3)CC2)O1 [Example 101, 5-[(2S,6R)-2-[[4-[2-[(3R,4S)-3-amino-4-fluoro-pyrrolidin-1-yl]pyrimidin-4-yl]piperazin-1-yl]methyl]-6-methyl-morpholin-4-yl]quinoline-8-carbonitrile]
3 | 7.74 | C[C@@H]1CN(c2ccc(C#N)c3ncccc23)C[C@H](CN2CCN(c3ccnc(N4C[C@@H](N)[C@H](F)C4)n3)CC2)O1 [Example 96, 5-[(2S,6R)-2-[[4-[2-[(3R,4R)-3-amino-4-fluoro-pyrrolidin-1-yl]pyrimidin-4-yl]piperazin-1-yl]methyl]-6-methyl-morpholin-4-yl]quinoline-8-carbonitrile]
4 | 7.25 | Cc1cc(N2CC(C)(N)C2)cnc1N1CCN(C[C@H]2CN(c3ccc(C#N)n4ncc(F)c34)C[C@@H](C)O2)CC1 [Example 148, 4-[(2S,6R)-2-[[4-[5-(3-amino-3-methyl-azetidin-1-yl)-3-methyl-2-pyridyl]piperazin-1-yl]methyl]-6-methyl-morpholin-4-yl]-3-fluoro-pyrazolo[1,5-a]pyridine-7-carbonitrile]
5 | 8.10 | CO[C@@H]1CN(c2cc(C)nc(N3CCN(C[C@H]4CN(c5ccc(C#N)c6nccnc56)C[C@@H](C)O4)CC3)n2)C[C@H]1N [Example 121, 8-[(2S,6R)-2-[[4-[4-[(3R,4R)-3-amino-4-methoxy-pyrrolidin-1-yl]-6-methyl-pyrimidin-2-yl]piperazin-1-yl]methyl]-6-methyl-morpholin-4-yl]quinoxaline-5-carbonitrile]
6 | 7.28 | [2H]c1ccc2c(N3C[C@H](CN4CCN(c5ccc(N6CC(C)(N)C6)c(C)n5)CC4)O[C@H](C)C3)ccc(C#N)c2n1 [Example 147, 5-[(2S,6R)-2-[[4-[5-(3-amino-3-methyl-azetidin-1-yl)-6-methyl-2-pyridyl]piperazin-1-yl]methyl]-6-methyl-morpholin-4-yl]-2-deuterio-quinoline-8-carbonitrile]
7 | 7.29 | C[C@@H]1CN(c2ccc(C#N)c3ncccc23)C[C@H](CN2CCN(c3cnc(N4CCNCC4)cn3)CC2)O1 [Example 6, 5-[(2R,6S)-2-methyl-6-[[4-(5-piperazin-1-ylpyrazin-2-yl)piperazin-1-yl]methyl]morpholin-4-yl]quinoline-8-carbonitrile]
8 | 7.46 | [2H]c1ccc2c(N3C[C@H](CN4CCN(c5ccc(N6C[C@H](N)[C@@H](F)C6)nc5)CC4)O[C@H](C)C3)ccc(C#N)c2n1 [Example 150, 5-[(2S,6R)-2-[[4-[6-[(3S,4S)-3-amino-4-fluoro-pyrrolidin-1-yl]-3-pyridyl]piperazin-1-yl]methyl]-6-methyl-morpholin-4-yl]-2-deuterio-quinoline-8-carbonitrile]
9 | 8.52 | Cc1cc(N2CC(N)C2)nc(N2CCN(C[C@H]3CN(c4ccc(C#N)c5nccnc45)C[C@@H](C)O3)CC2)n1 [Example 123, 8-[(2S,6R)-2-[[4-[4-(3-aminoazetidin-1-yl)-6-methyl-pyrimidin-2-yl]piperazin-1-yl]methyl]-6-methyl-morpholin-4-yl]quinoxaline-5-carbonitrile]
10 | 7.74 | Cc1cnc(N2CCN(C[C@H]3CN(c4ccc(C#N)c5ncccc45)C[C@@H](C)O3)CC2)nc1N1CCNCC1 [Example 102, 5-[(2R,6S)-2-methyl-6-[[4-(5-methyl-4-piperazin-1-yl-pyrimidin-2-yl)piperazin-1-yl]methyl]morpholin-4-yl]quinoline-8-carbonitrile]
11 | 7.49 | [2H]c1ccc2c(N3C[C@H](CN4CCN(c5ccc(N6C[C@H]7C[C@@H]6CN7)nc5)CC4)O[C@H](C)C3)ccc(C#N)c2n1 [Example 153, 2-deuterio-5-[(2S,6R)-2-[[4-[6-[(1R,4R)-2,5-diazabicyclo[2.2.1]heptan-2-yl]-3-pyridyl]piperazin-1-yl]methyl]-6-methyl-morpholin-4-yl]quinoline-8-carbonitrile]
12 | 7.52 | Cc1ccc(N2C[C@H](CN3CCN(c4ccnc(N5CCN[C@H](C)C5)n4)CC3)O[C@H](C)C2)c2nccnc12 [Example 128, (2R,6S)-2-methyl-6-[[4-[2-[(3R)-3-methylpiperazin-1-yl]pyrimidin-4-yl]piperazin-1-yl]methyl]-4-(8-methylquinoxalin-5-yl)morpholine]
13 | 7.80 | [2H]c1ccc2c(N3C[C@H](CN4CC(c5ccc(N6C[C@@H](N)[C@H](OC)C6)nc5)C4)O[C@H](C)C3)ccc(C#N)c2n1 [Example 149, 5-[(2S,6R)-2-[[3-[6-[(3R,4R)-3-amino-4-methoxy-pyrrolidin-1-yl]-3-pyridyl]azetidin-1-yl]methyl]-6-methyl-morpholin-4-yl]-2-deuterio-quinoline-8-carbonitrile]
14 | 7.52 | [2H]c1ccc2c(N3C[C@H](CN4CC(c5cccc(N6CC(C)(N)C6)n5)C4)O[C@H](C)C3)ccc(C#N)c2n1 [Example 159, 5-[(2S,6R)-2-[[3-[6-(3-amino-3-methyl-azetidin-1-yl)-2-pyridyl]azetidin-1-yl]methyl]-6-methyl-morpholin-4-yl]-2-deuterio-quinoline-8-carbonitrile]
15 | 7.46 | [2H]c1ccc2c(N3C[C@H](CN4CCN(c5ccc(N6C[C@@H]7C[C@H]6CN7)nc5)CC4)O[C@H](C)C3)ccc(C#N)c2n1 [Example 151, 2-deuterio-5-[(2S,6R)-2-[[4-[6-[(1S,4S)-2,5-diazabicyclo[2.2.1]heptan-2-yl]-3-pyridyl]piperazin-1-yl]methyl]-6-methyl-morpholin-4-yl]quinoline-8-carbonitrile]
16 | 7.89 | C[C@@H]1CN(c2ccc(C#N)c3ncccc23)C[C@H](CN2CCN(c3ncc(F)c(N4CCNCC4)n3)CC2)O1 [Example 94, 5-[(2S,6R)-2-[[4-(5-fluoro-4-piperazin-1-yl-pyrimidin-2-yl)piperazin-1-yl]methyl]-6-methyl-morpholin-4-yl]quinoline-8-carbonitrile]
17 | 8.22 | CO[C@@H]1CN(c2nccc(N3CCN(C[C@H]4CN(c5ccc(C#N)c6nccnc56)C[C@@H](C)O4)CC3)n2)C[C@H]1N [Example 98, 8-[(2S,6R)-2-[[4-[2-[(3R,4R)-3-amino-4-methoxy-pyrrolidin-1-yl]pyrimidin-4-yl]piperazin-1-yl]methyl]-6-methyl-morpholin-4-yl]quinoxaline-5-carbonitrile]
18 | 8.30 | CO[C@@H]1CN(c2nccc(N3CCN(C[C@H]4CN(c5ccc(C#N)c6ncccc56)C[C@@H](C)O4)CC3)n2)C[C@@H]1N [Example 92, 5-[(2S,6R)-2-[[4-[2-[(3S,4R)-3-amino-4-methoxy-pyrrolidin-1-yl]pyrimidin-4-yl]piperazin-1-yl]methyl]-6-methyl-morpholin-4-yl]quinoline-8-carbonitrile]
